According to patent publication US11352372B2, “Benzimidamides compounds comprising an oxaborinin ring” (INSTITUT NATIONAL DE LA SANTÉ ET DE LA RECHERCHE MÉDICALE …, priority 2018, dated 2022):
Structures can show the parent of a compound that is named as a salt.

Each molecule was assayed against T1, human kallikrein 5 recombinant enzyme (KLK5) (Homo sapiens, UniProt Q9Y337) (assay: Kinetic FLINT KLK5 assay). Details: 7.5 nM KLK5, 9 uM (Tos-Gly-Pro-Arg)2[R110] substrate, pH 8; each compound tested more than once.
T1 construct: The cleaved protein was then further purified on a 1 mL Heparin HP HITRAP column; 6His (cleaved yes); FLAG (cleaved yes); made in house; host or cells: Spodoptera frugiperda Super 9 insect cells (baculovirus, BAC-TO-BAC)
T1 sequence (Q9Y337 67-293 limits assumed): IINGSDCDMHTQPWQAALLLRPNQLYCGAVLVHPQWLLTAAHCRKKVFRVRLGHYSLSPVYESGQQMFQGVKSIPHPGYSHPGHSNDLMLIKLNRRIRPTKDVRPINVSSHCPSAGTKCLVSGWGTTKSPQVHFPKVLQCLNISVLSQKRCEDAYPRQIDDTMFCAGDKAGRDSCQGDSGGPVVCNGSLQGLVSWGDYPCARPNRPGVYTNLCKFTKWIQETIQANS
Type: biochemical
Experimental: Recombinant KLK5 protein was generated from a recombinant baculovirus using the BAC-TO-BAC system (INVITROGEN) (pFastBac_hKLK5_6His-Q-FLAG) expressed in 5 L of Spodoptera frugiperda Super 9 insect cells with a viral infection rate of 1.0. The protein was secreted into HYCLONE SFX growth media (GE HEALTHCARE) from which it was extracted on a 5 mL HISTRAP EXCEL column (GE HEALTHCARE). The column was washed with 500 mM NaCl, 20 mM Tris pH 7.4 buffer and the protein eluted using 500 mM imidazole in 250 mM NaCl, 20 mM Tris pH 7.4 buffer. The eluent was captured on a 5 mL ANTI-FLAG M2 Affinity Gel column (SIGMA). KLK5 was eluted by competing off the bound protein with 0.2 mg/mL FLAG peptide (SIGMA) in 50 mM NaCl, 20 mM Tris-HCl pH 7.4 buffer. 1 M CaCl2 was added to the pooled fractions to a final concentration 2 mM and these were treated with 0.1 U of enterokinase (NOVAGEN) per μg of target protein. The proteins were incubated at room temperature for ˜48 h. The cleaved protein was then further purified on a 1 mL Heparin HP HITRAP column (GE HEALTHCARE) in 20 mM MOPS, pH 6.8 buffer, washed with 100 mM NaCl in 20 mM MOPS, pH 6.8 buffer and eluted with 700 mM NaCl in this buffer. Fractions containing KLK5 were pooled and concentrated using an AMICON concentrator with a molecular weight cut off of 10000 Da. For cryoprotection, glycerol was added to a final concentration of 50%. All purifications were carried out using a semi-automated ÄKTA systems from GE HEALTHCARE.
11 point, 3-fold serial dilutions of each supporting compound were prepared in DMSO and 50 nL of these solutions were dispensed into black LV 384-well plates (GREINER BIO-ONE, Stonehouse, UK) using an ECHO 555 acoustic dispenser (LABCYTE, Sunnyvale, Calif.). This gave a final assay concentration range between 10 μM and […] in 5 μL final assay volume. 50 nL DMSO was dispensed into columns 6 and 18 for high and low controls, respectively. The assay plates were sealed and stored at 4° C. until required.
Conditions for the assay of human kallikrein 5 recombinant enzyme (KLK5), were 100 mM sodium phosphate, pH 8, 1 mM CHAPS, 7.5 nM KLK5 enzyme (see above for preparation), 9 uM peptide substrate ((Tos-Gly-Pro-Arg)2[R110].2TFA) in a total reaction volume of 5 μL.
Assays were performed by initially dispensing 2.5 μL of an enzyme solution (15 nM KLK5 in sodium phosphate, pH 8, 1 mM CHAPS) into all wells of the assay plate (except for column 18) then, 2.5 μL of buffer to column 18 (to generate low controls). Reactions were initiated by addition of 2.5 μL of substrate solution [18 uM (Tos-Gly-Pro-Arg)2[R110].2TFA (Cambridge Research Biochemicals) in sodium phosphate, pH 8, 1 mM CHAPS] to all wells. Plates were immediately centrifuged to reach 1000 rpm before transfer to the reader. All additions were made using a MULTIDROP COMBI dispenser (THERMO FISHER SCIENTIFIC). The assay plates were transferred to a PERKIN ELMER VIEWLUX. The plates were excited at 485 nm and the rates of Rhodamine110 fluorecent emission measured at 535 nm, following cleavage of the substrate by KLK5. Ten measurements were taken over 5 minutes with a read interval of 30 seconds.
From the raw data, the enzyme reaction rates were calculated as relative fluorescence units (RFU). Using the 10 reads collected, per well, a straight line was fitted through data. Initial rates were calculated from the slope of the reaction progress curves. The rate data was normalised to % inhibition between high controls in column 6 (0% inhibition) and low controls in column 18 (100% inhibition). Dose response curves were fitted using the IDBS Primary module fit. The data were fitted by means of a four-parameter fit logistic:
Where x is the inhibitor concentration, y is inhibition (%), A is the minimum response, D is the maximum response, C is the IC50 for the curve and B is the Hill slope. The −log(IC50) gives the pIC50.

Q: `Cl.N=C(N)c1ccc(C2Cc3ccccc3B(O)O2)cc1OCc1cccnc1` (centres unmarked) [Compound 8, 4-(1-hydroxy-3,4-dihydro-1H-benzo[c][1,2]oxaborinin-3-yl)-2-(pyridin-3-ylmethoxy)benzimidamide] was tested. Which “average pIC50” value did it give?
A: 8.2

Q: With `Cl.N=C(N)c1ccc(C2Cc3ccc(C(F)(F)F)cc3B(O)O2)cc1OCc1cccnc1` (centres unmarked) [Compound 1, 4-(1-Hydroxy-7-(trifluoromethyl)-3,4-dihydro-1H-benzo[c][1,2]oxaborinin-3-yl)-2-(pyridin-3-ylmethoxy)benzimidamide hydrochloride salt] as the molecule, how does the “average pIC50” value read?
A: 8.5

Q: How did the “average pIC50” value turn out when `Cl.N=C(N)c1ccc(C2Cc3cc(Cl)c(F)cc3B(O)O2)cc1OCc1cccnc1` (centres unmarked) [Compound 7, 4-(6-chloro-7-fluoro-1-hydroxy-3,4-dihydro-1H-benzo[c][1,2]oxaborinin-3-yl)-2-(pyridin-3-ylmethoxy)benzimidamide] was run?
A: 8.1

Same assay, conditions: 7.5 nM KLK5, 9 uM (Tos-Gly-Pro-Arg)2[R110] substrate, pH 8; each compound tested more than once; read-out: average pIC50 (converted)

Q: How did the IC50 turn out when `N=C(N)c1ccc([C@H]2Cc3ccc(C(F)(F)F)cc3B(O)O2)cc1OCc1cccnc1` [Compound 3, (R)-4-(1-hydroxy-7-(trifluoromethyl)-3,4-dihydro-1H-benzo[c][1,2]oxaborinin-3-yl)-2-(pyridin-3-ylmethoxy)benzimidamide] was run?
A: 39.8 nM

Q: `N=C(N)c1ccc(C2Cc3ccc(C(F)(F)F)cc3B(O)O2)cc1` (centres unmarked) [Compound 6, 4-(1-hydroxy-7-(trifluoromethyl)-3,4-dihydro-1H-benzo[c][1,2]oxaborinin-3-yl)benzimidamide] was tested. Which IC50 did it give?
A: 10 nM

Q: With `N=C(N)c1ccc([C@@H]2Cc3ccc(C(F)(F)F)cc3B(O)O2)cc1OCc1cccnc1` [Compound 4] as the molecule, how does the IC50 read?
A: 3.98 nM

Q: For `N=C(N)c1ccc([C@H]2Cc3ccc(C(F)(F)F)cc3B(O)O2)cc1OCc1cccnc1` [Compound 2, (R)-4-(1-hydroxy-7-(trifluoromethyl)-3,4-dihydro-1H-benzo[c][1,2]oxaborinin-3-yl)-2-(pyridin-3-ylmethoxy)benzimidamide hydrochloride salt], which IC50 is on record?
A: 3.98 nM

Q: How did the IC50 turn out when `N=C(N)c1ccc(C2Cc3ccc(C(F)(F)F)cc3B(O)O2)cc1OCc1cccc(Cl)c1` (centres unmarked) [Compound 5, 2-((3-chlorobenzyl)oxy)-4-(1-hydroxy-7-(trifluoromethyl)-3,4-dihydro-1H-benzo[c][1,2]oxaborinin-3-yl)benzimidamide] was run?
A: 7.94 nM
